Data reported in ChEMBL document CHEMBL6115023, “Design and biochemical evaluation of 2-cyclopropyl-thioureidobenzamide (CP-TBA) derivatives as potent HBV capsid assembly modulators targeting a novel binding site” (Eur J Med Chem, 2025).
The source made the active and inactive calls. No cut-off for these calls is given here.

What was measured:
[1] = Selectivity index, ratio of CC50 for human HepAD38 cells to IC50 for antiviral activity against HBV gene expressed in human HepAD38 cells assessed as inhibition of HBV DNA replication; format: toxicity, cell-based; conditions: read-out: Selectivity Index
[2] = tested on: Hepatitis B virus; assay: Antiviral activity against HBV gene expressed in human HePAD38 cells assessed as inhibition of HBV DNA replication by quantitative PCR analysis; format: functional, organism-based
[3] = Cytotoxicity against human HepAD38 cells measured after 72 hrs by CCK-8 assay; format: toxicity, cell-based
[4] = Stability in human plasma assessed as compound remaining measured after 60 mins by LC-MS/MS analysis; format: ADME, cell-free; conditions: read-out: Stability
[5] = Stability in human plasma assessed as compound remaining measured after 10 mins by LC-MS/MS analysis; format: ADME, cell-free; conditions: read-out: Stability
[6] = Stability in human plasma assessed as compound remaining measured after 30 mins by LC-MS/MS analysis; format: ADME, cell-free; conditions: read-out: Stability
[7] = Stability in human plasma assessed as half life by LC-MS/MS analysis; format: ADME, cell-free
[8] = Volume of distribution at steady state in Sprague-Dawley rat at 2 mg/kg, iv measured upto 24 hrs by LC-MS/MS analysis; format: ADME, organism-based; conditions: in vivo, read-out: Vdss
[9] = Tmax in Sprague-Dawley rat at 20 mg/kg, po measured upto 24 hrs by LC-MS/MS analysis; format: ADME, organism-based; conditions: in vivo
[10] = AUC (0 to infinity) in Sprague-Dawley rat at 20 mg/kg, po measured upto 24 hrs by LC-MS/MS analysis; format: ADME, organism-based; conditions: in vivo
[11] = Selectivity index, ratio of CC50 for human HLCZ01 cells to IC50 for antiviral activity against HBV infected in human HLCZ01 cells assessed as inhibition of HBV replication by measuring HBV DNA treated for 6 days by qPCR analysis; format: toxicity, cell-based; conditions: time 6 day, read-out: Selectivity Index
[12] = Clearance in Sprague-Dawley rat at 2 mg/kg, iv measured upto 24 hrs by LC-MS/MS analysis; format: ADME, organism-based; conditions: in vivo
[13] = Half life in Sprague-Dawley rat at 20 mg/kg, po measured upto 24 hrs by LC-MS/MS analysis; format: ADME, organism-based; conditions: in vivo
[14] = AUC (0 to infinitive) in Sprague-Dawley rat at 2 mg/kg, iv measured upto 24 hrs by LC-MS/MS analysis; format: ADME, organism-based; conditions: in vivo
[15] = AUC (0 to t) in Sprague-Dawley rat at 20 mg/kg, po measured upto 24 hrs by LC-MS/MS analysis; format: ADME, organism-based; conditions: in vivo
[16] = MRT (0 to t) in Sprague-Dawley rat at 20 mg/kg, po measured upto 24 hrs by LC-MS/MS analysis; format: ADME, organism-based; conditions: in vivo
[17] = Metabolic stability in human liver microsomes assessed as half life by LC-MS/MS analysis; format: ADME, Microsome
[18] = Stability in human plasma assessed as compound remaining measured after 120 mins by LC-MS/MS analysis; format: ADME, cell-free; conditions: read-out: Stability
[19] = Lipophilic-hydrophilic partition coefficient logP of compound; format: physicochemical; conditions: octanol/water
[20] = Metabolic stability in human liver microsomes assessed as compound remaining after 60 mins in presence of NADPH by LC-MS/MS analysis; format: ADME, Microsome; conditions: read-out: Stability
[21] = tested on: Hepatitis B virus; assay: In vivo antiviral activity against HBV infected male C57BL/6J mouse by hydrodynamic injection (HDI) of pAAV-HBV1.2 assessed as decrease in HBV DNA in serum at 5 mg/kg/day, po measured after 20 days by qPCR analysis; format: functional, organism-based; conditions: time 20.0 day
[22] = Cmax in Sprague-Dawley rat at 20 mg/kg, po measured upto 24 hrs by LC-MS/MS analysis; format: ADME, organism-based; conditions: in vivo
[23] = Metabolic stability in human liver microsomes assessed as compound remaining after 60 mins in absence of NADPH (NCF) by LC-MS/MS analysis; format: ADME, Microsome; conditions: read-out: Stability
[24] = tested on: Hepatitis B virus; assay: Antiviral activity against HBV infected in human HLCZ01 cells assessed as inhibition of HBV replication by measuring HBV DNA treated for 6 days by qPCR analysis; format: functional, organism-based; conditions: HLCZ01, 144 h
[25] = AUC (0 to t) in Sprague-Dawley rat at 2 mg/kg, iv measured upto 24 hrs by LC-MS/MS analysis; format: ADME, organism-based; conditions: in vivo
[26] = Metabolic stability in human liver microsomes assessed as intrinsic clearance measured per mg of microsomal protein upto 60 mins by LC-MS/MS analysis; format: ADME, Microsome; conditions: read-out: CLH
[27] = Half life in Sprague-Dawley rat at 2 mg/kg, iv measured upto 24 hrs by LC-MS/MS analysis; format: ADME, organism-based; conditions: in vivo
[28] = Stability in human plasma assessed as compound remaining measured immediately by LC-MS/MS analysis; format: ADME, cell-free; conditions: read-out: Stability
[29] = Oral bioavailability in Sprague-Dawley rat at 2 mg/kg, iv measured upto 24 hrs by LC-MS/MS analysis; format: ADME, organism-based; conditions: in vivo
[30] = MRT (0 to t) in Sprague-Dawley rat at 2 mg/kg, iv measured upto 24 hrs by LC-MS/MS analysis; format: ADME, organism-based; conditions: in vivo
[31] = MRT (0 to infinity) in Sprague-Dawley rat at 20 mg/kg, po measured upto 24 hrs by LC-MS/MS analysis; format: ADME, organism-based; conditions: in vivo
[32] = Metabolic stability in human liver microsomes assessed as intrinsic clearance (liver) upto 60 mins by LC-MS/MS analysis; format: ADME, Microsome; conditions: read-out: CLH
[33] = Cytotoxicity against human HLCZ01 cells assessed as cell viability measured after 72 hrs by CCK-8 assay; format: toxicity, cell-based
[34] = MRT (0 to infinity) in Sprague-Dawley rat at 2 mg/kg, iv measured upto 24 hrs by LC-MS/MS analysis; format: ADME, organism-based; conditions: in vivo
[35] = tested on: Hepatitis B virus; assay: Antiviral activity against HBV infected in human HLCZ01 cells assessed as inhibition of HBV replication by measuring HBsAg treated for 6 days by ELISA; format: functional, organism-based; conditions: time 6.0 day

O=C(Nc1cc(F)c(F)c(F)c1)c1cc(S(=O)(=O)NC2CCCC2)c(F)cc1-c1ccsc1
selectivity ratio [1]: < 0.29 | EC50 [2]: > 4 µM | CC50 at 72 h [3]: 1.16 µM

COC(=O)/C=C/c1c(S(=O)(=O)N2CCOCC2)ccc(F)c1C(=O)Nc1cc(F)c(F)c(F)c1
EC50 [2]: > 4 µM | CC50 at 72 h [3]: > 100 µM

O=C(Nc1cc(F)c(F)c(F)c1)c1cc(NC(=S)NC2CCCC2)c(F)cc1C1CC1
selectivity ratio [1]: 179 | EC50 [2]: 0.026 µM | CC50 at 72 h [3]: 4.66 µM

O=C(Nc1cc(C(=O)Nc2cc(F)c(F)c(F)c2)c(C2CC2)cc1F)c1cccs1
selectivity ratio [1]: 41.8 | EC50 [2]: 0.5 µM | CC50 at 72 h [3]: 20.9 µM

CCOC(=O)C1=C(CN2CCOCC2)NC(c2nccs2)=N[C@H]1c1ccc(F)cc1Br
EC50 [2]: 0.022 µM

O=C(Nc1cc(F)c(F)c(F)c1)c1cc(S(=O)(=O)NC2CCCC2)c(F)cc1C1CC1
selectivity ratio [1]: 52.3 | EC50 [2]: 0.65 µM | CC50 at 72 h [3]: 34 µM

CC(C)NC(=S)Nc1cc(C(=O)Nc2cc(F)c(F)c(F)c2)c(C2CC2)cc1F
selectivity ratio [1]: 510 | EC50 [2]: 0.033 µM | CC50 at 72 h [3]: 16.8 µM

O=C(Nc1cc(F)c(F)c(F)c1)c1cc(S(=O)(=O)NC2CCC(O)CC2)c(F)cc1-c1ccccc1 (stereo unspecified)
selectivity ratio [1]: < 12.4 | EC50 [2]: > 4 µM | CC50 at 72 h [3]: 49.7 µM

C=CCNC(=S)Nc1cc(C(=O)Nc2cc(F)c(F)c(F)c2)c(C2CC2)cc1F
selectivity ratio [1]: 151 | EC50 [2]: 0.11 µM | CC50 at 72 h [3]: 16.7 µM

CC(C)[N+](C)(CCOC(=O)C1c2ccccc2Oc2ccccc21)C(C)C.[Br-] [PROPANTHELINE BROMIDE]
remaining at 1 h [4]: 1.5% | remaining at 10 min [5]: 70.1% | remaining at 0.5 h [6]: 18.9% | half-life [7]: 0.162 h

O=C(Nc1cc(F)c(F)c(F)c1)c1cc(S(=O)(=O)NC2CCC(O)CC2)c(F)cc1-c1ccsc1 (stereo unspecified)
selectivity ratio [1]: < 20.6 | EC50 [2]: > 4 µM | CC50 at 72 h [3]: 82.4 µM

N#Cc1ccc(C(=O)Nc2cc(C(=O)Nc3cc(F)c(F)c(F)c3)c(C3CC3)cc2F)cc1
selectivity ratio [1]: 10.7 | EC50 [2]: 0.42 µM | CC50 at 72 h [3]: 4.5 µM

O=C(Nc1cc(F)c(F)c(F)c1)c1cc(NC(=S)NC2CC2)c(F)cc1C1CC1
selectivity ratio [1]: > 500 | EC50 [2]: 0.2 µM | CC50 at 72 h [3]: > 100 µM

CCNC(=S)Nc1cc(C(=O)Nc2cc(F)c(F)c(F)c2)c(C2CC2)cc1F
selectivity ratio [1]: 233 | EC50 [2]: 0.091 µM | CC50 at 72 h [3]: 21.2 µM

CC(C)N(C)C(=S)Nc1cc(C(=O)Nc2cc(F)c(F)c(F)c2)c(C2CC2)cc1F
Vd [8]: 2.1 L/kg | Tmax [9]: 0.67 h | AUC(0-inf) [10]: 3450 ng·h/mL | selectivity ratio at 144 h [11]: 9920 | clearance [12]: 28.2 mL/min/kg | remaining at 1 h [4]: 87.6% | half-life [13]: 2.87 h | AUC(0-inf) [14]: 1200 ng·h/mL | AUC(0-t) at 24 h [15]: 3440 ng·h/mL | MRT last at 24 h [16]: 4.35 h | half-life [17]: 0.205 h | remaining at 10 min [5]: 97.5% | remaining at 2 h [18]: 82.3% | logP [19]: > 5 | remaining at 1 h [20]: 3.2% | Activity [21]: Active | remaining at 0.5 h [6]: 91.6% | Cmax [22]: 748 ng/mL | remaining at 1 h [23]: 99% | EC50 [24]: 0.012 µM | selectivity ratio [1]: > 3030 | AUC(0-t) at 24 h [25]: 1180 ng·h/mL | microsomal CLint [26]: 113 µL/min/mg | half-life [27]: 1.62 h | EC50 [2]: 0.033 µM | remaining at 0 min [28]: 100% | bioavailability [29]: 28.9% | MRT last at 24 h [30]: 1.09 h | MRT inf [31]: 4.42 h | CLint scaled [32]: 102 mL/min/kg | CC50 at 72 h [33]: 119 µM | half-life [7]: > 4.82 h | MRT inf [34]: 1.24 h | Activity [35]: Active | CC50 at 72 h [3]: > 100 µM

CC(C)NC(=O)/C=C/c1c(S(=O)(=O)N2CCOCC2)ccc(F)c1C(=O)Nc1cc(F)c(F)c(F)c1
selectivity ratio [1]: < 6.04 | EC50 [2]: > 4 µM | CC50 at 72 h [3]: 24.2 µM

O=C(/C=C/c1c(S(=O)(=O)N2CCOCC2)ccc(F)c1C(=O)Nc1cc(F)c(F)c(F)c1)OCCO
EC50 [2]: > 4 µM | CC50 at 72 h [3]: > 100 µM

O=C(Nc1cc(F)c(F)c(F)c1)c1ccc(F)c(S(=O)(=O)N2CCC(O)CC2)c1
selectivity ratio [1]: 47.6

O=C(Nc1cc(F)c(F)c(F)c1)c1cc(S(=O)(=O)NC2CCC(O)CC2)c(F)cc1-c1ccc2c(c1)OCO2 (stereo unspecified)
selectivity ratio [1]: < 20.6 | EC50 [2]: > 4 µM | CC50 at 72 h [3]: 82.4 µM

O=C(Nc1cc(F)c(F)c(F)c1)c1cc(NC(=O)C2CC2)c(F)cc1C1CC1
selectivity ratio [1]: 59.6 | EC50 [2]: 1.48 µM | CC50 at 72 h [3]: 88.2 µM

O=C(Nc1cc(F)c(F)c(F)c1)c1cc(S(=O)(=O)NC2CCCC2)c(F)cc1-c1cccs1
selectivity ratio [1]: 3.75 | EC50 [2]: 4 µM | CC50 at 72 h [3]: 15 µM

O=C(Nc1cc(F)c(F)c(F)c1)c1cc(NC(=O)C2CCCC2)c(F)cc1C1CC1
selectivity ratio [1]: > 208 | EC50 [2]: 0.48 µM | CC50 at 72 h [3]: > 100 µM

O=C(O)Cc1ccccc1Nc1c(Cl)cccc1Cl [DICLOFENAC]
half-life [17]: 0.11 h | microsomal CLint [26]: 211 µL/min/mg | CLint scaled [32]: 190 mL/min/kg

C[C@]12CC[C@H]3[C@@H](CCC4=CC(=O)CC[C@@]43C)[C@@H]1CC[C@@H]2O [TESTOSTERONE]
microsomal CLint [26]: 74.5 µL/min/mg | CLint scaled [32]: 67 mL/min/kg

CC(NC(=S)Nc1cc(C(=O)Nc2cc(F)c(F)c(F)c2)c(C2CC2)cc1F)C(F)(F)F (stereo unspecified)
selectivity ratio [1]: 133 | EC50 [2]: 0.029 µM | CC50 at 72 h [3]: 3.86 µM
